In US6011174A, “Cyclic amic acid derivatives” (Banyu Pharmaceutical Co., Ltd., priority 1996, dated 2000):

Tests used:
[1] = target: T1, protein-farnesyl transferase (PFT) (Rattus norvegicus, UniProt Q02293+Q04631); experiment: Inhibitory activities against protein-farnesyl transferase (PFT); type: biochemical; conditions: PFT from rat brain; prenyl acceptor H-ras protein or biotin-added Lys-Thr-Ser-Cys-Val-Ile-Met; 37° C., 20 minutes; read-out: 50% inhibitory concentrations against PFT activities, IC50
T1 construct: soluble fraction of rat's brain; from tissue; host or cells: rat brain, soluble fraction, 30%-50% ammonium sulfate cut, Q-Sepharose fraction

[2] = test system: farnesyl-modification of Ras protein in NIH3T3 cells transformed by activated ras gene; experiment: Inhibitory activities against farnesyl-modification of Ras protein in NIH3T3 cells transformed by activated ras gene; type: cell-based; conditions: Mus musculus, 24 hours, read-out: 50% inhibitory concentrations against farnesyl-modification of Ras protein, IC50
Experimental: Using the compounds of the present invention, inhibitory activities against farnesyl-modification of Ras protein in NIH3T3 cells transformed by activated ras gene, were measured.
The NIH3T3 cells transformed by activated ras gene, were seeded on a culture plate and cultured for 3 days. Then, a compound of the preset invention in a predetermined concentration was added to the culture. In accordance with the method disclosed in J. Biol. Chem., vol. […] The cell extract was subjected to SDS polyacrylamide gel electrophoresis to separate farnesyl-modified Ras protein and non-farnesyl-modified Ras protein. The protein on the gel was transferred onto a nitrocellulose membrane, and an anti-Ras protein antibody was reacted as a probe (primary antibody reaction). An anti-primary antibody, a peroxidase inclusion (secondary antibody), was reacted, and then Ras protein was detected by a chemical fluorescence enhancing kit. The proportion of non-farnesyl-modified Ras protein was quantified by a densitometer and taken as the inhibitory activity.

[3] = test system: NIH3T3 Cells Transformed by Activated Ras Gene (NIH/ras); experiment: Antitumor effect against NIH/ras cells in nude mice, intraperitoneal (tumor weight); type: in vivo, nude mouse; conditions: for Growth inhibition (tumor weight): once a day days 1-6, day 7; for Weight of tumor, Average ± standard deviation: once a day days 1-6, weighed day 7
Source text: Pharmacological Test Example 3 (Therapeutic Effects to NIH3T3 Cells Transformed by Activated Ras Gene (NIH/ras))
(§1) ^1) Tumor inoculation: 10^6 cells were inoculated subcutaneously
(§2) to a female nude mouse.
^2) Dose: Each dose was intraperitonealy administered once a day from
the first day to the sixth day after the inoculation of the cells,.
^3) Weight of tumor: On the seventh day after inoculation of the
cells, the tumors were weighed.
^4) Growth inhibition: (1(average weight of tumor of the treated
group/average weight of tumor of the control group)) × 100
* and **: Statistical analyses by utest are 5% and 1%, respectively.

[4] = test system: NIH3T3 Cells Transformed by Activated Ras Gene (NIH/ras); experiment: Antitumor effect against NIH/ras cells in nude mice, subcutaneous (tumor volume); type: in vivo, nude mouse; conditions: for Growth inhibition (tumor volume): once a day days 1-10, day 8; for Volume of tumor, Average ± standard deviation: once a day days 1-10, measured day 8, ** 1% (u test)
Experimental: as §1, §2
^2 Dose: Each dose was subcutaneously administered once a day from th
first day to the tenth day after the inoculation of the cells.
^3) Volume of tumor: On the eighth day after inoculation of the cells
volume of the tumors were measured.
^4) Growth inhibition: (1(average volume of tumor of the treated
group/average volume of tumor of the control group)) × 100

[5] = 10 mg/kg/injection subcutaneous
[6] = 20 mg/kg/injection subcutaneous
[7] = 40 mg/kg/injection subcutaneous

Structure (SMILES) | IC50 [1] | IC50 [2] | also measured
C[C@H]([C@H](CCc1ccccc1)c1ccc(Oc2ccccc2)cc1)N(CC(=O)O)C(=O)[C@@H]1OC(C(=O)O)(C(=O)O)O[C@@H]1C(=O)O (relative stereo) [Example 23 (4R*, 5S*)-isomer, (4R*,5S*)-4-[N-(carboxymethyl)-N-{(1R,2R)-1-methyl-2-(4-phenoxyphenyl)-4-phenylbutyl}carbamoyl]-1,3-dioxolane-2,2,5-tricarboxylic acid] | 0.085 nM | 2100 nM | 
COc1cc(C(CCc2ccccc2)C(C)N(CC(=O)O)C(=O)[C@@H]2COC(C(=O)O)(C(=O)O)O2)ccc1Oc1ccccc1 (single isomer, unassigned) [Example 31] | 0.22 nM | 550 nM | 
CC(C(CCc1ccccc1)c1ccc(Oc2ccccc2)c(O)c1)N(CC(=O)O)C(=O)[C@@H]1COC(C(=O)O)(C(=O)O)O1 (single isomer, unassigned) [Example 32] | 0.2 nM | 590 nM | 
C[C@H]([C@H](CCc1ccccc1)c1ccc(Oc2ccccc2)cc1)N(CC(=O)O)C(=O)[C@@H]1COC(C(=O)O)(C(=O)O)O1 [Example 9, (4S)-4-[N-(carboxymethyl)-N-{(1R,2R)-1-methyl-2-(4-phenoxyphenyl)-4-phenylbutyl}carbamoyl]-1,3-dioxolane-2,2-dicarboxylic acid] | 0.16 nM | 240 nM | Growth inhibition (tumor weight) ([3]; 20 mg/kg/injection intraperitoneal): 67%; Weight of tumor, Average ± standard deviation ([3]; 20 mg/kg/injection intraperitoneal, * 5% (u test)): 0.024 ± 0.018 g; Growth inhibition (tumor weight) ([3]; 40 mg/kg/injection intraperitoneal): 80%; Weight of tumor, Average ± standard deviation ([3]; 40 mg/kg/injection intraperitoneal, ** 1% (u test)): 0.015 ± 0.013 g; Growth inhibition (tumor weight) ([3]; 80 mg/kg/injection intraperitoneal): 90%; Weight of tumor, Average ± standard deviation ([3]; 80 mg/kg/injection intraperitoneal, ** 1% (u test)): 0.008 ± 0.006 g; Growth inhibition (tumor weight) ([3]; 160 mg/kg/injection intraperitoneal): 98%; Weight of tumor, Average ± standard deviation ([3]; 160 mg/kg/injection intraperitoneal, ** 1% (u test)): 0.002 ± 0.001 g
C[C@H]([C@H](CCc1ccccc1)c1ccc(Oc2ccccc2)cc1)N(CC(=O)O)C(=O)[C@H]1OC(C(=O)O)(C(=O)O)O[C@@H]1C(=O)O [Example 22, (4S,5S)-4-[N-(carboxymethyl)-N-{(1R,2R)-1-methyl-2-(4-phenoxyphenyl)-4-phenylbutyl}carbamoyl]-1,3-dioxolane-2,2,5-tricarboxylic acid] | 0.095 nM | 1900 nM | Growth inhibition (tumor volume) [4, 5]: 75%; Volume of tumor, Average ± standard deviation [4, 5]: 0.164 ± 0.073 cm^3; Growth inhibition (tumor volume) [4, 6]: 92%; Volume of tumor, Average ± standard deviation [4, 6]: 0.052 ± 0.030 cm^3; Growth inhibition (tumor volume) [4, 7]: 99%; Volume of tumor, Average ± standard deviation [4, 7]: 0.010 ± 0.009 cm^3

The next lines start with results.

IC50 [1] | Structure (SMILES) | IC50 [2] | also measured
0.075 nM | C[C@H]([C@H](CCc1ccccc1)c1ccc(Oc2ccccc2)cc1)N(CC(=O)O)C(=O)[C@H]1OC(C(=O)O)(C(=O)O)O[C@H]1C(=O)O (relative stereo) [Example 23 (4S*, 5R*)-isomer, (4S*,5R*)-4-[N-(carboxymethyl)-N-{(1R,2R)-1-methyl-2-(4-phenoxyphenyl)-4-phenylbutyl}carbamoyl]-1,3-dioxolane-2,2,5-tricarboxylic acid] | 2000 nM | 
0.098 nM | C[C@H]([C@H](CCc1ccccc1)c1ccc(Oc2ccccc2)cc1)N(CC(=O)O)C(=O)[C@@H]1OC(C(=O)O)(C(=O)O)O[C@H]1C(=O)O [Example 21, (4R,5R)-4-[N-(carboxymethyl)-N-{(1R,2R)-1-methyl-2-(4-phenoxyphenyl)-4-phenylbutyl}carbamoyl]-1,3-dioxolane-2,2,5-tricarboxylic acid] | 2100 nM | 
